Here are results for two compounds from article PMC12169669, “Regio- and Stereoselective Synthesis of Nitro-fatty Acids as NRF2 Pathway Activators Working under Ambient or Hypoxic Conditions” (Journal of Medicinal Chemistry, 2025).

Assay [1] concerns NRF2. Particulars: comparison of positional isomers; literature; cited from earlier work.
For assay [2], the system named is NRF2. The following applies: colon cancer cell line, versus shorter or longer chain derivatives; literature; cited from earlier work.
Assay [3] deals with NRF2. Kind of assay: Immunocytochemistry of NRF2 in BMCs. The class given is cell-based, mouse. Particulars: 1 h, 1% oxygen. On the procedure: BMCs (2 × 10^6 cells in 300 μL of complete medium) were incubated with 10-NO 2 OA or control medium for 1 h in a 1% oxygen incubator. Cells were then washed with PBS, resuspended in fresh PBS, and plated on an 8-well μ-slide (ibidi, Germany). After allowing cells to settle (10 min), PBS was aspirated, and cells were fixed with 4% paraformaldehyde for 10 min. From this step onward, all work was performed under atmospheric conditions. Cells were washed twice, permeabilized with 0.1% Triton X-100, washed again, and blocked with 1% BSA/PBS. Samples were incubated with primary anti-NRF2 antibody (1:100, SAB4501384, Millipore) overnight at 4 °C. After washing, a secondary Alexa Fluor 647 antibody (1:100, A31573, Invitrogen) was added for 1 h at room temperature in the dark. After washes, nuclei were stained with DAPI (0.5 μg/mL, Merck) for 10 min at room temperature in the dark, washed, and mounted on a microscope slide. Images were acquired with an Olympus FV10i (Olympus, Japan) scanning microscope and analyzed using ImageJ v1.52 (NIH).
5 Subcellular localization of NRF2. NO 2 FA derivatives promote nuclear translocation of NRF2 in mouse BMCs. BMCs were cultured under 1% oxygen conditions and treated for 1 h with 2 μM of 10-NO 2 OA, 10-NO 2 LA, or 10-NO 2 SA. […] Data are expressed as mean ± SD from two independent experiments (n = 2). […]

The next assay concerns Gclm and Hmox1. On the set-up: method as in Khoo et al. The following applies: compared to other derivatives; ref Khoo et al.; cited from earlier work.

Take `CCCCCCCC/C=C(\CCCCCCCC(=O)O)[N+](=O)[O-]` [9-NO2OA, (9E)-9-Nitro-oleic Acid]: the “NRF2 activation (ARE-reporter luciferase)” value in the assay with NRF2 [1] was “preferentially activated NRF2 over 10-NO 2 OA”. Besides, the NRF2 induction result in the assay on NRF2 [2] is “induced NRF2 more robustly”.
In the case of `CCCCCCCC/C(=C\CCCCCCCC(=O)O)[N+](=O)[O-]` [10-NO2OA, (9E)-10-Nitro-oleic Acid], the “colocalization of NRF2 with the nucleus” value in the assay on NRF2 [3] is “increased colocalization”. Further, in the assay on Gclm and Hmox1, the “expression of Gclm and Hmox1” value is recorded as “induced a higher expression”.
